The text below walks through data of patent US20230414581A1, “SARM1 ENZYME ACTIVITY INHIBITOR AND USE THEREOF IN NEURODEGENERATIVE DISEASES” (ARTIVILA BIOPHARMA, priority 2020, published 2023).

Molecules are shown by their SMILES.

For assay [1], the target named is T1, dN-SARM1 (Homo sapiens (Human), UniProt Q6SZW1). Kind of assay: In vitro biochemical test of inhibiting SARM1 enzyme activity (IC50), PC6 fluorescence method. The following applies: dN-SARM1 0.05 μg/ml; 50 μM NAD, 50 μM PC6, 50 μM NMN activator; 10 min pre-incubation. How it is done: First, 200 μM of the compound was added to a 50 mM Tris-HCl (pH 7.5) solution containing 0.05 μg/ml dN-SARM1. Then half of the mixture was added to an equal volume of 50 mM Tris-HCl (pH 7.5) solution containing 0.05 μg/ml dN-SARM1 (pH 7.5) for mixing. The drug was diluted 6 times by analogy to final concentrations of 200, 100, 50, 25, 12.5, 6.25, 3.125 μM, or 200, 50, 12.5, 3.125, 0.78, 0.195, 0.049 μM. The solution without addition of inhibitor was control group. The above solutions were incubated at room temperature for 10 min.
T1 sequence (Q6SZW1 28-724): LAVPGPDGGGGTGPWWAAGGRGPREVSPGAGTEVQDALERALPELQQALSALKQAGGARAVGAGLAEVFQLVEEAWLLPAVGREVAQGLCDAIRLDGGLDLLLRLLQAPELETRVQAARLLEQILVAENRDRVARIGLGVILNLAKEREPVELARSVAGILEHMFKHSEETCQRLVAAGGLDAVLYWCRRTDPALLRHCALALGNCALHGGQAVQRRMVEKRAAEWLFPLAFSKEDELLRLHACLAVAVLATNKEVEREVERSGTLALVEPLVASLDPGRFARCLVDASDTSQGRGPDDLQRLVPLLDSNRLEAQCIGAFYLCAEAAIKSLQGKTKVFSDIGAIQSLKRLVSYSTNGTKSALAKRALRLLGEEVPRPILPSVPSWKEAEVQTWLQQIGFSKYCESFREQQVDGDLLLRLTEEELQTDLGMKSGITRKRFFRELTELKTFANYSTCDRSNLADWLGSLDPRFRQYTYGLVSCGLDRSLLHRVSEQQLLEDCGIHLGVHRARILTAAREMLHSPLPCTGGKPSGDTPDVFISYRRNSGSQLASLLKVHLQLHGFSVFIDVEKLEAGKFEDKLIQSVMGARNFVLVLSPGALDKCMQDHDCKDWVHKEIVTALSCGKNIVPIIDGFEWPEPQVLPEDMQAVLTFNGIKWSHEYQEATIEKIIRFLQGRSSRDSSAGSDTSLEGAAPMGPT
Then 50 μM NAD, 50 μM PC6 as substrate and 50 μM NMN as activator were added to the dN-SARM1 protein incubated with inhibitor for 30 min of reaction at room temperature. The concentration of each component was the final concentration in the reaction system.
During the reaction process, PC6 fluorescence spectrum kinetics was detected by a microplate reader at an excitation wavelength and an emission wavelength of 390 nm and 520 nm, respectively. Finally, the activity of the protein was denoted by the reaction rate, and the half-inhibition concentration was calculated. The higher the reaction rate, the stronger the protein activity, and the lower the inhibition efficiency of the compound.

The target of assay [2] is T1, dN-SARM1. Kind of assay: In vitro biochemical test of inhibiting SARM1 enzyme activity (% inhibition rate), PC6 fluorescence method. The following applies: 50 μM compound; 0.05 μg/ml dN-SARM1; 50 μM NAD, 50 μM PC6, 50 μM NMN activator; 30 min room temperature. How it is done:
The compounds were detected by PC6 fluorescence method [Chinese patent 202010528147.3] with the dN-SARM1 protein obtained in “Expression and purification of SARM1 protein” and “(4) Protein extraction” in Example 4 above.
First, 0.05 μg/ml dN-SARM1 and 50 μM compound were incubated in 50 mM Tris-HCl (pH 7.5) solution for 10 min. Then 50 μM NAD, 50 μM PC6 as substrate and 50 μM NMN as activator were added to the dN-SARM1 protein incubated with the drug for 30 min of reaction at room temperature. The concentration of each component was the final concentration in the reaction system.
During the reaction process, PC6 fluorescence spectrum kinetics was detected by a microplate reader at an excitation wavelength and an emission wavelength of 390 nm and 520 nm, respectively. Finally, the activity of the protein was denoted by the reaction rate. The higher the reaction rate, the stronger the protein activity, and the lower the inhibition efficiency of the compound.

For assay [3], the target named is SARM1 in iSARM1 (HEK293) cells (Homo sapiens (Human), UniProt Q6SZW1). Briefly: Inhibition of SARM1 activity in cell line with inducible overexpression of SARM1 (intracellular cADPR level). The conditions noted are these: 50 μM inhibitor, 100 μM CZ-48 activator, 16 h, cADPR content. It is filed as cell-based. On the procedure:
Firstly, a 96-well culture dish was treated with 0.05 mg/ml polylysine for 5 min, and washed once with PBS. 3×10^4 iSARM1 (HEK293) cells were plated into the 96-well plate and cultured in a 37° C. and 5% incubator overnight. The next day, the cells were added with an inhibitor with a final concentration of 50 μM, cultured in the incubator for 1.5 h, then added with the activator CZ-48 with a final concentration of 100 μM, and co-cultured for 16 h. In addition, a control group without addition of CZ-48 or drug was set up. Finally, the intracellular cADPR level was detected to denote the activity of SARM1, and the inhibition rate of SARM1 by 50 μM inhibitor in cells was calculated.
The cADPR assay was conducted as follows. First, the cells were washed once with PBS, and added with 150 μl of pre-cooled 0.6M perchloric acid (PCA) for rapid lysis of the cells and precipitation of proteins. […]
The content of cADPR in the solution was determined by Cycling analysis, which was operated as follows. […] Each well of the 96-well plate was added with the reaction solution containing or not containing cyclase for reaction, and the reaction kinetic curve within 30 min (Ex:Em=544/599) was recorded. The average slope of the reaction was calculated, and the accurate cADPR content was calculated by converting the cADPR standard. […]

Sequence of SARM1 in iSARM1 (HEK293) cells (Q6SZW1 28-724): as above

The IC50 is the midpoint of a concentration-inhibition curve. At dN-SARM1 [1], `N#Cc1c(Cl)cc(Cl)cc1Sc1cc(Cl)cc(Cl)c1O` [Compound 36] gave an IC50 of over 10000 nM. On dN-SARM1 [2], the “Inhibition rate of enzyme activity” value is reported as 98.5%.

On dN-SARM1 [1], `Cn1c(=O)sn(-c2cccc3ccccc23)c1=O` [Compound 3] yielded an IC50 of under 1000 nM.

For the compound `N#Cc1ccc(Cl)cc1Cc1cc(Cl)ccc1C#N` [Compound 32], the IC50 against dN-SARM1 [1] is over 10000 nM. The “Inhibition rate of enzyme activity” value at dN-SARM1 [2] is 93.7%.

Consider `O=c1sn(-c2ccccc2C(F)(F)F)c(=O)n1CC1CC1` [Compound 2], for which, in assay [3], the Inhibition rate result is reported as “B (B: 25-50%)”. On dN-SARM1 [1], this compound showed a half-maximal inhibitory concentration (IC50) of under 1000 nM.

Turning to `Cn1sc(=O)n(Cc2ccccc2)c1=O` [Compound 1], the IC50 on dN-SARM1 [1] is under 1000 nM.

For `O=C(C=Cc1cccc(S(=O)(=O)Nc2ccccc2)c1)NO` [Compound 42], the “Inhibition rate of enzyme activity” value at dN-SARM1 [2] came to 67.4%.

For `Cc1cccc(Cl)c1-n1sc(=O)n(CC2CC2)c1=O` [Compound 4], the IC50 against dN-SARM1 [1] is under 1000 nM.

`CCN(CC)C(=S)SSC(=S)N(CC)CC` [Compound 37] gave an IC50 against dN-SARM1 [1] of under 1000 nM. Also, the “Inhibition rate of enzyme activity” value at dN-SARM1 [2] amounted to 101%.

Turning to `O=C(CCCCCCNC(=O)c1cnc(N(c2ccccc2)c2ccccc2)nc1)NO` [Compound 43], the concentration for half-maximal inhibition (IC50) on dN-SARM1 [1] was over 10000 nM. The “Inhibition rate of enzyme activity” value at dN-SARM1 [2] was 85.3%.

On dN-SARM1 [1], `O=c1sn(-c2cccc3ccccc23)c(=O)n1Cc1ccccc1` [Compound 7] returned a concentration for half-maximal inhibition (IC50) of under 1000 nM. Further, the “Inhibition rate of enzyme activity” value on dN-SARM1 [2] turned out to be 98.6%.

Take `CCn1c(=O)/c(=C2\Sc3ccccc3N2C)s/c1=C\c1cccc[n+]1CC` [Compound 39]: the IC50 at dN-SARM1 [1] is 1000 to 10000 nM.

For `O=C(CCCCCCC(=O)Nc1ccccc1)NO` [Compound 40], the “Inhibition rate of enzyme activity” value on dN-SARM1 [2] is 75.6%.

On dN-SARM1 [1], `Cc1ccc(-n2sc(=O)n(Cc3ccc(F)cc3)c2=O)cc1` [Compound 6] registered an IC50 of under 1000 nM.

For the compound `CC(C)c1ccc(-n2c(=O)sn(-c3ccc(SC(F)(F)F)cc3)c2=O)cc1` [Compound 8], the concentration for half-maximal inhibition (IC50) against dN-SARM1 [1] lay in the range of 1000 to 10000 nM.

Turning to `Oc1cc(Cl)ccc1Oc1ccc(Cl)cc1Cl` [Compound 35], the half-maximal inhibitory concentration (IC50) at dN-SARM1 [1] is over 10000 nM. At dN-SARM1 [2], the “Inhibition rate of enzyme activity” value stood at 102%.

As for `O=C(/C=C/c1ccc(CNCCc2c(O)[nH]c3ccccc23)cc1)NO` [Compound 41], the “Inhibition rate of enzyme activity” value at dN-SARM1 [2] stood at 67.3%.
